Laboratory results published in ChEMBL document CHEMBL5154783, “Design, synthesis, and evaluation of novel 3-thiophene derivatives as potent fungistatic and fungicidal reagents based on a conformational restriction strategy” (Eur J Med Chem, 2022).
Values after ≈ are worked out from the molar mass of the structure shown.

Tests used:
Assay type in all cases: functional
Candida albicans [1] = assay: Antifungal activity against Candida albicans ATCC SC5314 assessed as fungal growth inhibition by CLSI based serial microbroth dilution method
Candida albicans [2] = assay: Antifungal activity against Candida albicans CPCC400616 assessed as fungal growth inhibition by CLSI based serial microbroth dilution method
Candida tropicalis = assay: Antifungal activity against Candida tropicalis CGMCC 2.3739 assessed as fungal growth inhibition by CLSI based serial microbroth dilution method
Cryptococcus neoformans = assay: Antifungal activity against Cryptococcus neoformans CGMCC 2.3161 assessed as fungal growth inhibition by CLSI based serial microbroth dilution method
Candida parapsilosis = assay: Antifungal activity against Candida parapsilosis GIM 2.190 assessed as fungal growth inhibition by CLSI based serial microbroth dilution method; conditions: Lodderomyces parapsilosis
Nakaseomyces glabratus = assay: Antifungal activity against Candida glabrata clinical isolate assessed as fungal growth inhibition by CLSI based serial microbroth dilution method
Pichia kudriavzevii = assay: Antifungal activity against Candida krusei GIM 2.1 assessed as fungal growth inhibition by CLSI based serial microbroth dilution method
Aspergillus fumigatus = assay: Antifungal activity against Aspergillus fumigatus CGMCC 3.7795 assessed as fungal growth inhibition by CLSI based serial microbroth dilution method
Candida albicans [3] = assay: Antifungal activity against FLC and ITC-resistant Candida albicans 17 assessed as fungal growth inhibition by CLSI based serial microbroth dilution method
Candida albicans [4] = assay: Antifungal activity against FLC-resistant Candida albicans CaR assessed as fungal growth inhibition by CLSI based serial microbroth dilution method
Candida albicans [5] = assay: Antifungal activity against FLC-resistant Candida albicans 901 assessed as fungal growth inhibition by CLSI based serial microbroth dilution method
Candida albicans [6] = assay: Antifungal activity against FLC-resistant Candida albicans 904 assessed as fungal growth inhibition by CLSI based serial microbroth dilution method
Candida albicans [7] = assay: Antifungal activity against FLC-resistant Candida albicans 632 assessed as fungal growth inhibition by CLSI based serial microbroth dilution method
Candida albicans [8] = assay: Antifungal activity against FLC-resistant Candida albicans 100 assessed as fungal growth inhibition by CLSI based serial microbroth dilution method
Candida albicans [9] = assay: Antifungal activity against FLC-resistant Candida albicans 103 assessed as fungal growth inhibition by CLSI based serial microbroth dilution method
Candida albicans [10] = assay: Antifungal activity against FLC-resistant Candida albicans 311 assessed as fungal growth inhibition by CLSI based serial microbroth dilution method

SMILES | MIC (Candida albicans [1]) [µg/mL] | MIC (Candida albicans [2]) [µg/mL] | MIC (Candida tropicalis) [µg/mL] | MIC (Cryptococcus neoformans) [µg/mL] | MIC (Candida parapsilosis) [µg/mL] | MIC (Nakaseomyces glabratus) [µg/mL] | MIC (Pichia kudriavzevii) [µg/mL] | MIC (Aspergillus fumigatus) [µg/mL] | MIC (Candida albicans [3]) [µg/mL] | MIC (Candida albicans [4]) [µg/mL] | MIC (Candida albicans [5]) [µg/mL] | MIC (Candida albicans [6]) [µg/mL] | MIC (Candida albicans [7]) [µg/mL] | MIC (Candida albicans [8]) [µg/mL] | MIC (Candida albicans [9]) [µg/mL] | MIC (Candida albicans [10]) [µg/mL]
Cc1cccc(CC2(Cn3ccnc3)COC(c3ccc(-c4ccsc4)cc3)=N2)c1 (stereo unspecified) | > 64 | > 64 | > 64 | > 64 | > 64 | > 64 | > 64 | > 64 | – | – | – | – | – | – | – | –
c1ccc(COc2ccc(C3=NC(Cc4ccccc4)(Cn4ccnc4)CO3)cc2)cc1 (stereo unspecified) | > 64 | > 64 | > 64 | > 64 | > 64 | > 64 | > 64 | > 64 | – | – | – | – | – | – | – | –
c1ccc(CC2(Cn3ccnc3)COC(c3ccc(-c4ccsc4)cc3)=N2)cc1 (stereo unspecified) | 0.5 (≈ 1.25 µM) | 0.25 (≈ 0.626 µM) | 0.25 (≈ 0.626 µM) | 8 (≈ 20 µM) | 0.5 (≈ 1.25 µM) | > 64 | > 64 | 16 (≈ 40 µM) | 4 (≈ 10 µM) | 32 (≈ 80.1 µM) | 4 (≈ 10 µM) | 2 (≈ 5.01 µM) | 16 (≈ 40 µM) | 2 (≈ 5.01 µM) | 2 (≈ 5.01 µM) | 4 (≈ 10 µM)
FC(F)(F)Oc1ccc(CC2(Cn3ccnc3)COC(c3ccc(-c4ccsc4)cc3)=N2)cc1 (stereo unspecified) | > 64 | > 64 | > 64 | > 64 | > 64 | > 64 | > 64 | > 64 | – | – | – | – | – | – | – | –
FC(F)(F)c1cccc(CC2(Cn3ccnc3)COC(c3ccc(-c4ccsc4)cc3)=N2)c1 (stereo unspecified) | > 64 | > 64 | > 64 | > 64 | > 64 | > 64 | > 64 | > 64 | – | – | – | – | – | – | – | –
Clc1ccccc1CC1(Cn2ccnc2)COC(c2ccc(-c3ccsc3)cc2)=N1 (stereo unspecified) | 0.125 (≈ 0.288 µM) | 8 (≈ 18.4 µM) | 0.5 (≈ 1.15 µM) | > 64 | 1 (≈ 2.3 µM) | 16 (≈ 36.9 µM) | > 64 | 16 (≈ 36.9 µM) | – | – | – | – | – | – | – | –
Clc1ccc(CC2(Cn3ccnc3)COC(c3ccc(-c4ccsc4)cc3)=N2)cc1 (stereo unspecified) | > 64 | > 64 | > 64 | > 64 | > 64 | > 64 | > 64 | > 64 | – | – | – | – | – | – | – | –
Fc1ccc(CC2(Cn3ccnc3)COC(c3ccc(-c4ccsc4)cc3)=N2)cc1F (stereo unspecified) | > 64 | > 64 | > 64 | > 64 | > 64 | > 64 | > 64 | > 64 | – | – | – | – | – | – | – | –
Fc1cccc(F)c1CC1(Cn2ccnn2)COC(c2ccc(-c3ccsc3)cc2)=N1 (stereo unspecified) | 16 (≈ 36.7 µM) | 16 (≈ 36.7 µM) | > 64 | > 64 | > 64 | > 64 | > 64 | > 64 | – | – | – | – | – | – | – | –
Fc1ccccc1CC1(Cn2ccnc2)COC(c2ccc(-c3ccsc3)cc2)=N1 (stereo unspecified) | 0.125 (≈ 0.299 µM) | 0.5 (≈ 1.2 µM) | 0.125 (≈ 0.299 µM) | 16 (≈ 38.3 µM) | 0.5 (≈ 1.2 µM) | 16 (≈ 38.3 µM) | 1 (≈ 2.4 µM) | 32 (≈ 76.6 µM) | 8 (≈ 19.2 µM) | 32 (≈ 76.6 µM) | 2 (≈ 4.79 µM) | 2 (≈ 4.79 µM) | 8 (≈ 19.2 µM) | 2 (≈ 4.79 µM) | 1 (≈ 2.4 µM) | 4 (≈ 9.58 µM)
CC(C)c1ccc(CC2(Cn3ccnc3)COC(c3ccc(-c4ccsc4)cc3)=N2)cc1 (stereo unspecified) | > 64 | > 64 | > 64 | > 64 | > 64 | > 64 | > 64 | > 64 | – | – | – | – | – | – | – | –
c1ccc(CC2(Cn3ccnc3)COC(c3ccc(-c4ccoc4)cc3)=N2)cc1 (stereo unspecified) | 0.5 (≈ 1.3 µM) | > 64 | > 64 | 4 (≈ 10.4 µM) | > 64 | > 64 | > 64 | > 64 | – | – | – | – | – | – | – | –
Fc1ccc(CC2(Cn3ccnc3)COC(c3ccc(-c4ccsc4)cc3)=N2)c(F)c1 (stereo unspecified) | > 64 | > 64 | > 64 | > 64 | > 64 | > 64 | 2 (≈ 4.59 µM) | > 64 | – | – | – | – | – | – | – | –
c1ccc(CC2(Cn3ccnc3)COC(c3ccc4ccccc4c3)=N2)cc1 (stereo unspecified) | > 64 | > 64 | > 64 | 4 (≈ 10.9 µM) | > 64 | > 64 | > 64 | > 64 | – | – | – | – | – | – | – | –
CCC(C)n1ncn(-c2ccc(N3CCN(c4ccc(OCC5COC(Cn6cncn6)(c6ccc(Cl)cc6Cl)O5)cc4)CC3)cc2)c1=O (stereo unspecified) [ITRACONAZOLE] | 0.03 (≈ 0.0425 µM) | < 0.03 | < 0.03 | 0.125 (≈ 0.177 µM) | 0.125 (≈ 0.177 µM) | 0.125 (≈ 0.177 µM) | 0.125 (≈ 0.177 µM) | 0.125 (≈ 0.177 µM) | – | – | – | – | – | – | – | –
